What was measured:
Format in all cases: biochemical
[1] = molecular target: T1, KIAA 1361 (baculovirus expressed human KIAA 1361 kinase domain 2-322) (Homo sapiens, UniProt Q7L7X3); assay: KIAA 1361 Luciferase-Coupled Chemiluminescent Kinase assay (LCCA); conditions: 2 μM ATP, 10 μM MBP, 12 nM KIAA 1361, 2 hours; read-out: KIAA1361 inhibition IC50
T1 construct: human KIAA 1361 kinase domain 2-322; made in house
T1 sequence (Q7L7X3 2-322): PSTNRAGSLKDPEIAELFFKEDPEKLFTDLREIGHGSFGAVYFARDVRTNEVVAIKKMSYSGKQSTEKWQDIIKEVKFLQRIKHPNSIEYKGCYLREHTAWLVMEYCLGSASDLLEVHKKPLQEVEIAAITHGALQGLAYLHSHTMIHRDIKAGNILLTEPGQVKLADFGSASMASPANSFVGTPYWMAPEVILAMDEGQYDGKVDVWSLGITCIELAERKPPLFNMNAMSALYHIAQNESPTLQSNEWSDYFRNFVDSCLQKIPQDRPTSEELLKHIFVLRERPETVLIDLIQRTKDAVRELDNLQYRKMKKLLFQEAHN
Description: (§1) Kinase activity and compound inhibition are investigated using one or more of the three assay formats described below. The ATP concentrations for each assay are selected to be close to the Michaelis-Menten constant (KM) for each individual kinase. Dose-response experiments are performed at 10 different inhibitor concentrations in a 384-well plate format. The data are fitted to four-parameter equation (2) below; where Y is the observed signal, X is the inhibitor concentration, Min is the background signal in the absence of enzyme (0% enzyme activity), Max is the signal in the absence of inhibitor (100% enzyme activity), IC50 is the inhibitor concentration at 50% enzyme inhibition and H represents the empirical Hill's slope to measure the cooperativity. Typically H is close to unity. Y=Min+(Max−Min)/(1+(X/IC50)ˆH) Equation (2) KIAA 1361 Assay: […]
(§2) KIAA 1361 biochemical activity was assessed using a Luciferase-Coupled Chemiluminescent Kinase assay (LCCA) format. Kinase activity was measured as the percent ATP remaining following the kinase reaction. Remaining ATP was detected by luciferase-luciferin-coupled chemiluminescence. Specifically, the reaction was initiated by mixing test compounds, 2 μM ATP, 10 μM MBP and 12 nM KIAA 1361 (baculovirus expressed human KIAA 1361 kinase domain 2-322) in a 20 uL assay buffer (20 mM Tris-HCL pH7.5, 10 mM MgCl2, 0.02% Triton X-100, 100 mM DTT, 2 mM MnCl2). The mixture is incubated at ambient temperature for 2 hours after which 20 uL luciferase-luciferin mix is added and the chemiluminescent signal read using a Wallac Victor^2 reader. The luciferase-luciferin mix consists of 50 mM HEPES, pH 7.8, 8.5 ug/mL oxalic acid (pH 7.8), 5 (or 50) mM DTT, 0.4% Triton X-100, 0.25 mg/mL coenzyme A, 63 uM AMP, 28 ug/mL luciferin and 40,000 units of light/mL luciferase.

[2] = molecular target: T2, JIK (Homo sapiens, UniProt Q9H2K8); assay: JIK Luciferase-Coupled Chemiluminescent Kinase assay (LCCA); conditions: 2 μM ATP, 10 μM MBP, 6 nM JIK, 2 hours; read-out: JIK inhibition IC50
T2 construct: 6 nM JIK (baculovirus expressed human KIAA 1361 kinase domain2-318); made in house
T2 sequence (Q9H2K8 2-318): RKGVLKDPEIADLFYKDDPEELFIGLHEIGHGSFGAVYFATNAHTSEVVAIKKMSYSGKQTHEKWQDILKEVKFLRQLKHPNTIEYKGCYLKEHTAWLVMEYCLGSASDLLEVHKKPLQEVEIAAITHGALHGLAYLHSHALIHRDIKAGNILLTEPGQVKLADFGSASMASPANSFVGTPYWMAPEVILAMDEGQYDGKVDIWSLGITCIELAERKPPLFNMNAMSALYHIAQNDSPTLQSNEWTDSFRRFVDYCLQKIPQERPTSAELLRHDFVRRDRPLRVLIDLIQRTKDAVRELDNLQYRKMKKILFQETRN
Description: as §1
as §2, with “JIK biochemical” for “KIAA 1361 biochemical”, “and 6” for “and 12”, “nM JIK” for “nM KIAA 1361”, “kinase domain2-318)” for “kinase domain 2-322)”

[3] = molecular target: T3, TAO (Homo sapiens, UniProt Q9UL54); assay: TAO Luciferase-Coupled Chemiluminescent Kinase assay (LCCA); conditions: 2 μM ATP, 10 μM MBP, 12 nM TAO, 2 hours; read-out: TAO inhibition IC50
T3 sequence (Q9UL54 1-1235): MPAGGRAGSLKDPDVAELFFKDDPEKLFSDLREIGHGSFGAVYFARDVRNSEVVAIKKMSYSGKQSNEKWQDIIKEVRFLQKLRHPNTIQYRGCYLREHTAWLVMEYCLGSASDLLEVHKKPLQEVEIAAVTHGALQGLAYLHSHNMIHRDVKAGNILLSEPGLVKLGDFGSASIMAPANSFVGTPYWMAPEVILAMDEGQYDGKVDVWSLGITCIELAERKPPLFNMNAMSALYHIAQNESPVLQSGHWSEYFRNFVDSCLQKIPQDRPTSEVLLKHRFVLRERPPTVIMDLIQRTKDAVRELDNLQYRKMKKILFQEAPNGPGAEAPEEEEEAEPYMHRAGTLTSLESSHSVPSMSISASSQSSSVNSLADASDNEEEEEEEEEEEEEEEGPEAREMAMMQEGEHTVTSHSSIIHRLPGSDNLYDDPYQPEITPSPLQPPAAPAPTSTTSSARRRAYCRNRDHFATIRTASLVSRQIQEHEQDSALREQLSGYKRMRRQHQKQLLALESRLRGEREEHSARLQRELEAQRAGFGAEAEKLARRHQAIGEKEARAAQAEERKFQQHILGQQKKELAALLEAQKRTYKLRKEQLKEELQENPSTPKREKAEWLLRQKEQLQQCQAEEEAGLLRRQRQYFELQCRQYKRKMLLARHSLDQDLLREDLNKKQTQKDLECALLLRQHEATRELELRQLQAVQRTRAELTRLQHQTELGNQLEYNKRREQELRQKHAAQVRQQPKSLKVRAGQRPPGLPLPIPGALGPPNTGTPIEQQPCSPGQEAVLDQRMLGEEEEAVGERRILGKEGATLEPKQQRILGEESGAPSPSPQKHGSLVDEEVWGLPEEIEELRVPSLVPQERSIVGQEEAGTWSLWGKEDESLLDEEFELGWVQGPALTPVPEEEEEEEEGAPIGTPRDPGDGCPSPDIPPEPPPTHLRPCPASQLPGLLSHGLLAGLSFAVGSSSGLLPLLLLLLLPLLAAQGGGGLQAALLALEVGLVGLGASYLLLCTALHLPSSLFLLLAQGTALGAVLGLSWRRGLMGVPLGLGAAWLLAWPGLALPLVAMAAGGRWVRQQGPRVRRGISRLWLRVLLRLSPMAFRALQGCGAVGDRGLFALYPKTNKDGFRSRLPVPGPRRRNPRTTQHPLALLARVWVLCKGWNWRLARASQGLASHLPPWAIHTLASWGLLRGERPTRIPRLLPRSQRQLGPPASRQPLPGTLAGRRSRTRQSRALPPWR
Description: as §1
as §2, with “TAO biochemical” for “KIAA 1361 biochemical”, “nM TAO” for “nM KIAA 1361”, “mM […],” for “mM HEPES,”, “[…]” for “0.25 mg/mL”

SMILES | IC50 [1] [nM] | IC50 [2] [nM] | IC50 [3] [nM]
O=C(NC1CCCc2ccccc21)C(NC(=O)C(c1ccccc1)C1CCCC1)c1cccnc1 (stereo not drawn) [Entry 7, 2-cyclopentyl-N-[2-oxo-1-pyridin-3-yl-2-(1,2,3,4-tetrahydronaphthalen-1-ylamino)ethyl]-2-phenylacetamide] | 50 to 500 | < 50 | 50 to 500
O=C(CC(NC(=O)c1ccccc1)c1ccccc1)NCC(=O)Nc1nc2ccccc2s1 (stereo not drawn) [Entry 90, N-(3-{[2-(1,3-benzothiazol-2-ylamino)-2-oxoethyl]amino}-3-oxo-1-phenylpropyl)benzamide] | 50 to 500 | < 50 | 50 to 500
CCCCOc1ccc(NC(=O)N[C@@H](COCc2ccccc2)C(=O)NCCc2ccccc2)cc1 [Entry 21, N˜2˜-({[4-(butyloxy)phenyl]amino}carbonyl)-N-(2-phenylethyl)-O-(phenylmethyl)serinamide] | 50 to 500 | 50 to 500 | > 5000
O=C(CNC(=O)N1CCN(c2ccccc2)CC1)NC1CCCc2ccccc21 (stereo not drawn) [Entry 91, N-[2-oxo-2-(1,2,3,4-tetrahydronaphthalen-1-ylamino)ethyl]-4-phenylpiperazine 1-carboxamide] | > 5000 | > 5000 | > 5000
COc1ccc2nc(NC(=O)CNC(=O)CCNC(=O)c3ccccc3)sc2c1 [Entry 85, N-(phenylcarbonyl)-beta-alanyl-N-[6-(methyloxy)-1,3-benzothiazol-2-yl]glycinamide] | > 5000 | > 5000 | > 5000
O=C(COc1ccc(Br)cc1)NCC(=O)NC1CCCc2ccccc21 (stereo not drawn) [Entry 3, N˜2˜-{[(4-bromophenyl)oxy]acetyl}-N-(1,2,3,4-tetrahydronaphthalen-1-yl)glycinamide] | 50 to 500 | < 50 | 50 to 500
O=C(CCN1CCCCC1)NCC(=O)NC1CCCc2ccccc21 (stereo not drawn) [Entry 88, N-[2-oxo-2-(1,2,3,4-tetrahydronaphthalen-1-ylamino)ethyl]-3-piperidin-1-ylpropanamide] | > 5000 | > 5000 | > 5000
COc1cc2cc(C(=O)N[C@@H](Cc3c[nH]c4ccccc34)C(=O)NC3CCCc4ccccc43)[nH]c2cc1OC (stereo partly drawn) [Entry 13, Nalpha-{[5,6-bis(methyloxy)-1H-indol-2-yl]carbonyl}-N-(1,2,3,4-tetrahydronaphthalen-1-yl)tryptophanamide] | 50 to 500 | < 50 | 500 to 5000

Further lines, results first:

IC50 [1] [nM] | IC50 [2] [nM] | IC50 [3] [nM] | SMILES
> 5000 | > 5000 | > 5000 | O=C(CNC(=O)c1ccc2ncccc2c1)Nc1cccc2c1CCCC2 [Entry 86, N-[2-oxo-2-(5,6,7,8-tetrahydronaphthalen-1-ylamino)ethyl]quinoline-6-carboxamide]
> 5000 | > 5000 | > 5000 | CCc1ccc(-c2ccc(C(=O)N(C)CC(=O)NC3CCCc4ccccc43)cc2)cc1 (stereo not drawn) [Entry 66, 4′-ethyl-N-methyl-N-[2-oxo-2-(1,2,3,4-tetrahydronaphthalen-1-ylamino)ethyl]biphenyl-4-carboxamide]
50 to 500 | 50 to 500 | > 5000 | CCc1ccc(-c2ccc(C(=O)NCC(=O)NCc3ccccc3C(F)(F)F)cc2)cc1 [Entry 79, 4′-ethyl-N-[2-oxo-2-({[2-(trifluoromethyl)phenyl]methyl}amino)ethyl]biphenyl-4-carboxamide]
< 50 | < 50 | 50 to 500 | CCCCCOc1ccc(C(=O)NCC(=O)NC2CCCc3ccccc32)cc1 (stereo not drawn) [Entry 1, N-[2-oxo-2-(1,2,3,4-tetrahydronaphthalen-1-ylamino)ethyl]-4-(pentyloxy)benzamide]
50 to 500 | 50 to 500 | 50 to 500 | CCCCCCCOc1ccc(C(=O)NCC(=O)NC2CCCc3ccccc32)cc1 (stereo not drawn) [Entry 8, 4-(heptyloxy)-N-[2-oxo-2-(1,2,3,4-tetrahydronaphthalen-1-ylamino)ethyl]benzamide]

From patent publication US20070208166A1, “Tao Kinase Modulators And Method Of Use” (Exelixis, Inc., priority 2003, published 2007)
